Experimental data as given in patent US20090264388A1, “Compounds and Methods of Treating Disorders Associated With Activation of Metachromatic Cells” (Valorisation Recherche HSCM, Limited Partnership, priority 2006, published 2009).
Entries after “also recorded” stand apart in the source; their conditions may differ. Structures can show the parent of a compound that is named as a salt. Where two headings read alike, the source gives them in different places.

Experiments:
[1] = test system: RBL-2H3 cells; assay: Histamine immunoreactivity (intracellular histamine pools) in IgE-sensitized RBL-2H3 cells stimulated with DNP-BSA; type: cell-based, rat; conditions: pretreatment 10 μM; DNP-BSA 40 ng/ml
Text: Data analysis using the macro built under the Image-Pro Plus platform enabled the representation of the frequency distribution of the maximal intensity for histamine immunoreactivity into RBL-2H3 cells. We arbitrarily divided basophils into six subgroups according to the range of maximal fluorescence intensity detected into the cells, e.g., 300 to 499 IAU (intensity arbitrary unit) or 900-1100 IAU. […] Therefore, frequency distribution analyses confirmed the β-hexosaminidase data by showing that blocking NK-1 receptors inhibits FcεRI clustering-induced metachromatic cell degranulation.

[2] = target: T1, NK-1 receptors (Homo sapiens, UniProt P25103); conditions: CHO cells expressing NK-1 receptors, cited from earlier work
T1 construct: expressed in transfected cells; host or cells: CHO cells
T1 sequence (P25103 whole entry): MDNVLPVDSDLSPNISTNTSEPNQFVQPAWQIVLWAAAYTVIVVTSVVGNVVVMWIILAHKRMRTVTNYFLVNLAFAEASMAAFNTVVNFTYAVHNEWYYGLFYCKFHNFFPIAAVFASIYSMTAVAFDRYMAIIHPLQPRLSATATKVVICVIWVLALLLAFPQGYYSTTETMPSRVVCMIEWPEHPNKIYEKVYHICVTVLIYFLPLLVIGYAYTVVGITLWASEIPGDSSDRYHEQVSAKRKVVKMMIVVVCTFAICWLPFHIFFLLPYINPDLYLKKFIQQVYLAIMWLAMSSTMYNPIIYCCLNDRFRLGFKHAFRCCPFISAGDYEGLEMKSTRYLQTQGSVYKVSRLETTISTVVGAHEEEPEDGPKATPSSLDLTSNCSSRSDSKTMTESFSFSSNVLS

[3] = test system: RBL-2H3 cells; assay: Intracellular calcium changes (Fluo-3 AM, epifluorescence microscopy) in RBL-2H3 cells; type: cell-based, rat; conditions: Fluo-3 AM loaded cells (FIG. 12)
[4] = test system: RBL-2H3 cells; assay: Antigen (DNP-BSA)-induced β-hexosaminidase release (degranulation) in IgE-sensitized RBL-2H3 cells; type: cell-based, rat; conditions: for blockade of IgE-dependent activation and degranulation of metachromatic cells, agent alone: antigen-induced maximal degranulation (FIG. 21-28); for effect on antigenic degranulation / β-hexosaminidase release: DNP-BSA 5 ng/ml and 40 ng/ml, antagonist concentration not stated
Text: The rat basophilic cell line RBL-2H3 is an art recognized model for studying the activation of metachromatic cells through FcεRI (Oliver et al., “Signal transduction and cellular response in RBL-2H3 mast cells,” Prog. Allergy 42:185-245, 1988).
(§1) The below experiments used the rat basophilic cells RBL-2H3 commercially available from the American Type Culture Collection (ATCC; Manassas, Va.) under accession number CRL-2256. RBL-2H3 cells were passively sensitized with mouse IgE anti-dinitrophenyl conjugated to bovine serum albumin (DNP-BSA) monoclonal antibody for 22 hours, and then stimulated with DNP-BSA (antigen) to induce cell degranulation (FIG. 1).

[5] = test system: RBL-2H3 cells; assay: Calcium ionophore A23187-induced β-hexosaminidase release in RBL-2H3 cells; type: cell-based, rat
Procedure: RBL-2H3 cells were stimulated with the calcium ionophore A23187 (SigmaAldrich #C7522) in a concentration-dependent manner to induce metachromatic cell degranulation FIG. 10). […] The maximal inhibition is obtained at the concentration of 10 μM of L-703,606 (FIG. 11).

[6] = test system: RBL-2H3 cells; assay: Cell viability by trypan blue exclusion test in RBL-2H3 cells; type: cell-based, rat; conditions: IgE-sensitized RBL-2H3 cells stimulated with DNP-BSA (FIG. 3)
Procedure: as §1, with “1). To address the issue of an autocrine tachykinergic regulation of metachromatic cell degranulation in response to antigenic activation, IgE-sensitized RBL-2H3 cells were pre-treated with a selective NK-1 receptor antagonist prior to antigen stimulation.” for “1).”

[7] = target: neurokinin-1 receptor (Homo sapiens, UniProt P25103); conditions: cited from earlier work
Chain of neurokinin-1 receptor (Homo sapiens, UniProt P25103) (P25103 whole entry): as above

[8] = target: T2, neurokinin-1 receptor (Cavia porcellus, UniProt P30547); conditions: guinea pig ileum; cited from earlier work
T2 construct: pA2: 7.16 (guinea pig ileum); from tissue; host or cells: guinea pig ileum
T2 sequence (P30547 whole entry): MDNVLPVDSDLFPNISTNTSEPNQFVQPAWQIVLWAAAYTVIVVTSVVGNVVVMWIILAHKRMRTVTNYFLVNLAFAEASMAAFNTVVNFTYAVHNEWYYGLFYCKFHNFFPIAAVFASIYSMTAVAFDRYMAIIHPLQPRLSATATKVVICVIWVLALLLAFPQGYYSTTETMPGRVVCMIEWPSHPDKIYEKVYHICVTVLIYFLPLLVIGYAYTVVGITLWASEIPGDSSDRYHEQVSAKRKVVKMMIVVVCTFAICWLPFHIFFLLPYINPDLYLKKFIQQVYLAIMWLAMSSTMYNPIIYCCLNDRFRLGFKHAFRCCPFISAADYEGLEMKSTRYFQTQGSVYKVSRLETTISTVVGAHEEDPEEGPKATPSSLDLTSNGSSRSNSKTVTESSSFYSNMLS

[9] = target: T3, neurokinin-1 receptor (Rattus norvegicus, UniProt P14600); conditions: rat brain; cited from earlier work
T3 construct: from tissue; host or cells: rat brain
T3 sequence (P14600 whole entry): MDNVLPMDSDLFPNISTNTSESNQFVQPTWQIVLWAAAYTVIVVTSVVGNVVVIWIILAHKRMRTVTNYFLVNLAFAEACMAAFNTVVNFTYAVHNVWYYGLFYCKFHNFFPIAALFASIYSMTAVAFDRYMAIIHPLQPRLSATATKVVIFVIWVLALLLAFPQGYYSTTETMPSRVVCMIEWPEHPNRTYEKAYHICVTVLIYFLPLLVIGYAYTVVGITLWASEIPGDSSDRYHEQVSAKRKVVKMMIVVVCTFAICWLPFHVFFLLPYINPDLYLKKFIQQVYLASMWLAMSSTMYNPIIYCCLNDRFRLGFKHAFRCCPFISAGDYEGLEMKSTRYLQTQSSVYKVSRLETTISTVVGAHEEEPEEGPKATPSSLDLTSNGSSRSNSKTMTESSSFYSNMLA

[10] = antagonist 10 μM, DNP-BSA 5 ng/ml
[11] = antagonist 10 μM, DNP-BSA 40 ng/ml

Molecule: Ic1ccccc1CNC1C2CCN(CC2)C1C(c1ccccc1)c1ccccc1.O=C(O)C(=O)O [L-703,606, cis-2-(Diphenylmethel)-N-([2-iodophenyl]methyl)-1-azabicyclo (2.2.2) octan-3-amine]
- depletion of histamine intracellular pools [1]: mostly abolished
- IC50 [2]: 2 nM
- effect on calcium ionophore-induced calcium signals [3]: unlikely to be attributable to inhibition of calcium ionophore-induced extracellular calcium signals
- effect on antigen-induced maximal degranulation ([4]; L-703,606 5 μM alone, antigen 40 ng/ml): weak effect
- effect on inhibition by Tacrolimus of antigen-induced maximal cell degranulation ([4]; L-703,606 10 μM, Tacrolimus 0.01 μM): potentiates
- effect on inhibition by cyclosporin A of antigen-induced maximal cell degranulation ([4]; L-703,606 10 μM, cyclosporin A 0.1 μM): potentiates
- effect on inhibition by FTY720 of antigen-induced maximal cell degranulation ([4]; L-703,606 1, 5 and 10 μM, FTY720 5 μM): potentiates
- effect on inhibition by BAY 61-3606 of antigen-induced maximal cell degranulation ([4]; L-703,606 5 and 10 μM, BAY 61-3606 100 and 250 nM): potentiates
- effect on inhibition by LY-294,002 of antigen-induced maximal cell degranulation ([4]; L-703,606 5 and 10 μM, LY-294,002 1 and 10 μM): potentiates
- effect on inhibition by PD98059 of antigen-induced maximal cell degranulation ([4]; L-703,606 5 and 10 μM, PD98059 5, 10 and 25 μM): potentiates
- effect on inhibition by PP1 of antigen-induced maximal cell degranulation ([4]; L-703,606 5 and 10 μM, PP1 1 and 5 μM): potentiates
- effect on inhibition by SB202190 of antigen-induced maximal cell degranulation ([4]; L-703,606 5 and 10 μM, SB202190 10 and 25 μM): potentiates
- effect on antigen-induced 50% of cell degranulation [4, 10]: completely abolished
- reduction of maximal antigenic degranulation response [4, 11]: ~50%
- inhibition of antigen-induced β-hexosaminidase release ([4]; antagonist 1 to 10 μM, DNP-BSA 5 ng/ml or 40 ng/ml): concentration-dependent inhibition
- effect on basal release of β-hexosaminidase ([4]; no antigen, data not shown): did not change
- most efficient inhibitory concentration for β-hexosaminidase release ([4]; range tested 1 to 10 μM): 10 µM
- concentration giving maximal inhibition of calcium ionophore-induced degranulation ([5]; calcium ionophore A23187): 10 µM
- inhibition of calcium ionophore-induced activation and degranulation ([5]; calcium ionophore A23187 (FIG. 11)): inhibit, in a concentration-dependent manner
- cell viability (trypan blue exclusion) [6]: did not alter cell viability
- cell viability (trypan blue exclusion) ([6]; listed as L-703,606 oxalate salt): not attributable to cell death
- Kd ([7]; 35% sites): 1.5 nM
- Kd ([7]; 65% sites): 0.04 nM

Molecule: CCCCCCCCc1ccc(CCC(N)(CO)CO)cc1.Cl [FTY720]
- blockade of IgE-dependent activation and degranulation of metachromatic cells, agent alone [4]: potent blocker

Molecule: C[C@@H]1C[C@H]2[C@@H]3CCC4=CC(=O)C=C[C@]4(C)[C@@]3(F)[C@@H](O)C[C@]2(C)[C@@]1(O)C(=O)CO [dexamethasone]
- reduction of maximal degranulation ([4]; dexamethasone 10^−8 M alone, antigen 40 ng/ml): 50%

Molecule: COc1cccc(-c2cc(=O)c3ccccc3o2)c1N [PD98059]
- blockade of IgE-dependent activation and degranulation of metachromatic cells, agent alone [4]: potent blocker

Molecule: C=CC[C@@H]1/C=C(\C)C[C@H](C)C[C@H](OC)[C@H]2O[C@@](O)(C(=O)C(=O)N3CCCC[C@H]3C(=O)O[C@H](/C(C)=C/[C@@H]3CC[C@@H](O)[C@H](OC)C3)[C@H](C)[C@@H](O)CC1=O)[C@H](C)C[C@@H]2OC [Tacrolimus]
- blockade of IgE-dependent activation and degranulation of metachromatic cells, agent alone [4]: potent blocker

Molecule: [D-Arg^1, D-Phe^5, D- Trp^7,9, Leu^11] substance P [Antagonist D]
- effect on antigenic degranulation / β-hexosaminidase release [4]: did not alter; also recorded: lack of inhibition
- Affinity (selectivity in words) [7]: Non-selective

Molecule: COc1cc(C(=O)N2CC[C@](CCN3CCC(C(N)=O)(c4ccccc4)CC3)(c3ccc(Cl)c(Cl)c3)C2)cc(OC)c1OC [MDL 105,212]
- effect on antigenic degranulation / β-hexosaminidase release [4]: lack of inhibition
- effect on cell degranulation induced by 40 ng/ml DNP-BSA ([4]; antagonist 1 μM (but not 10 μM), DNP-BSA 40 ng/ml): significantly increased
- effect on antigen concentration leading to 50% of maximal degranulation ([4]; antagonist at both 1 μM and 10 μM, DNP-BSA 5 ng/ml): had no effect

Molecule: Cl.O=c1cc(N2CCOCC2)oc2c(-c3ccccc3)cccc12 [LY-294,002]
- blockade of IgE-dependent activation and degranulation of metachromatic cells, agent alone [4]: potent blocker

Molecule: Oc1ccc(-c2nc(-c3ccncc3)c(-c3ccc(F)cc3)[nH]2)cc1 [SB202190]
- blockade of IgE-dependent activation and degranulation of metachromatic cells, agent alone [4]: potent blocker

Molecule: COc1ccc(-c2cc3nccn3c(Nc3ncccc3C(N)=O)n2)cc1OC [BAY 61-3606]
- blockade of IgE-dependent activation and degranulation of metachromatic cells, agent alone [4]: potent blocker

Molecule: COc1ccccc1CC(=N)N1C[C@@H]2C(=O)CCC(c3ccccc3)(c3ccccc3)[C@@H]2C1 [RP 67580, (3aR,7aR)-Octahydro-2-[1-imino-2-(2-methoxyphenyl)ethyl]-7,7-diphenyl-4H-isoindol]
- pA2 [8]: 7.16
- IC50 [9]: 10 nM
- decrease of degranulation induced by 5 ng/ml DNP-BSA [4, 10]: ~50%
- effect on maximal antigenic degranulation [4, 11]: no significant effect

Molecule: FC(F)(F)c1cc(CO[C@@H]2CCCN[C@@H]2c2ccccc2)cc(C(F)(F)F)c1 [L-733,060, ((2S,3S)-3-[[3,5-bis (Trifluoromethyl)phenyl]methoxy]-2-phenylpiperidine hydrochloride]
- IC50 ([2]; read-out: IC50): 1 nM
- effect on antigen-induced 50% of cell degranulation [4, 10]: completely abolished
- reduction of maximal antigenic degranulation response [4, 11]: ~55%
